According to paper PMC9246256, “Structure-based optimization of type III indoleamine 2,3-dioxygenase 1 (IDO1) inhibitors” (Journal of Enzyme Inhibition and Medicinal Chemistry, 2022):
Like-named read-outs stand apart in the source and are kept apart here.

Target: T1, purified recombinant IDO1 (Homo sapiens, UniProt P14902)
T1 construct: Full-length human IDO1 gene was cloned into the pET-28a vector; inferred from pET-28a vector and HisTrap purification; made in house; host or cells: E. coli Rosetta (DE3)
Assay: Enzymatic IDO1 inhibition assay (ascorbate/methylene blue reduction system, HPLC detection of kynurenine)
Assay type: biochemical
Conditions: for IC50: enzymatic, L-Trp 100 µM, 0.01% Triton X-100, 5% DMSO, 20 min at room temperature, pH 6.5, duplicates; for LE [kcal/mol/HA]: ligand efficiency, LE = -RT log(IC50)/number of heavy atoms, from enzymatic IC50

T1 sequence (P14902 whole entry): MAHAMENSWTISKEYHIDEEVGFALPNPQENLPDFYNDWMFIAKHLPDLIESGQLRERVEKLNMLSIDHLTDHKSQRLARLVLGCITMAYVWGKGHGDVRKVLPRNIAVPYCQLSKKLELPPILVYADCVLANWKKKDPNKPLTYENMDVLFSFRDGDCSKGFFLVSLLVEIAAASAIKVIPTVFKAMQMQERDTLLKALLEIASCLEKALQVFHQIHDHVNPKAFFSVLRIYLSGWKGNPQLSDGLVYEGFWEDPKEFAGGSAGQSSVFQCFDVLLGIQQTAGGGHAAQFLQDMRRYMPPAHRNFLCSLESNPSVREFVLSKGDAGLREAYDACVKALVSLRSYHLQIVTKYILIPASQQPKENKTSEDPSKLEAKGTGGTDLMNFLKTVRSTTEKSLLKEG

IC50 (read-out: IC50 [ μ M] (SD)) [µM] | LE [kcal/mol/HA] | Structure (SMILES) | IC50 (IC50 [ μ M] (SD)) [µM]
> 1000 |  | Oc1ccc(-c2c[nH]nn2)cc1 [Compound 20, 4–(1,2,3-Triazol-4-yl)phenol] | 
> 1000 |  | c1ccc2c(c1)Cc1n[nH]nc1-2 [Compound 89, 3,8-Dihydroindeno[1,2-d][1,2,3]triazole] | 
> 1000 |  | OC(c1ccccc1)c1c[nH]nn1 (stereo not shown) [Compound 85, Phenyl(1,2,3-triazol-4-yl)methanol] | 
> 500 |  | c1ccc(COc2ccccc2-c2c[nH]nn2)cc1 [Compound 25, 4–(2-Benzyloxyphenyl)-1,2,3-triazole] | 
> 1000 |  | Brc1ccc(Nc2nnc[nH]2)cc1 [Compound 166, N-(4-Bromophenyl)-4H-1,2,4-triazol-3-amine] | 
 |  | c1ccc(-c2nnc[nH]2)nc1 [Compound 159, 2-(1H-1,2,4-Triazol-3-yl)pyridine] | > 1000
> 1000 |  | NCc1nn[nH]c1C(=O)c1ccc(Br)cc1 [Compound 126, (4-(Aminomethyl)-1H-1,2,3-triazol-5-yl)(4-bromophenyl)methanone] | 
16 | 0.55 | Nc1cccnc1-c1nc[nH]n1 [Compound 160, 2-(1H-1,2,4-Triazol-3-yl)pyridine-3-amine] | 
990 | 0.28 | COc1cccc(C(=O)c2cnn[nH]2)c1 [Compound 104, (3-Methoxyphenyl)(1H-1,2,3-triazol-5-yl)methanone] | 
58 | 0.44 | Clc1cc(Cl)cc(-c2c[nH]nn2)c1 [Compound 50, 4–(3,5-Dichlorophenyl)-1,2,3-triazole] | 
> 1000 |  | O=C(c1ccc(O)cc1)c1cnn[nH]1 [Compound 108, (4-Hydroxyphenyl)(1H-1,2,3-triazol-5-yl)methanone] | 
> 1000 |  | O=C(c1cccc(O)c1)c1cnn[nH]1 [Compound 107, (3-Hydroxyphenyl)(1H-1,2,3-triazol-5-yl)methanone] | 
> 1000 |  | O=S(=O)(c1ccccc1)c1c[nH]nn1 [Compound 84, 4-(Phenylsulfonyl)-1H-1,2,3-triazole] | 
280 | 0.37 | Clc1cccc(Cl)c1-c1c[nH]nn1 [Compound 51, 4–(2,6-Dichlorophenyl)-1,2,3-triazole] | 
 | 0.51 | CCc1cccc(-c2cnn[nH]2)c1 [Compound 22] | 
> 1000 |  | O=C(Nc1c(Cl)cccc1-c1nc[nH]n1)c1ccccc1 [Compound 154, N-(2-Chloro-6-(1H-1,2,4-triazol-3-yl)phenyl)benzamide] | 
> 1000 |  | COc1ccccc1C(=O)c1cnn[nH]1 [Compound 103, (2-Methoxyphenyl)(1H-1,2,3-triazol-5-yl)methanone] | 
 | 0.54 | Clc1ccc(Cl)c(-c2cnn[nH]2)c1 [Compound 46] | 
34 | 0.41 | CCCCc1cccc(-c2c[nH]nn2)c1 [Compound 24, 4–(3-Butylphenyl)-1,2,3-triazole] | 
> 1000 |  | O=C(Nc1ccccc1)c1cn[nH]n1 [Compound 86, N-Phenyl-1H-1,2,3-triazole-4-carboxamide] | 
> 1000 |  | NC(=O)CSc1nnc2sc3ccccc3n12 [Compound 168, 2-((1,9a-Dihydrobenzo[4,5]thiazolo[2,3-c][1,2,4]triazol-3-yl)thio)acetamide] | 
> 100 |  | c1ccc2c(c1)ccc1nn[nH]c12 [Compound 88] | 
 | 0.80 | Nc1ccc(Br)cc1-c1nnc[nH]1 [Compound 12] | 
> 100 |  | c1ccc(Nc2cnn[nH]2)cc1 [Compound 79] | 

IC50 (read-out: IC50 [ μ M] (SD)) [µM] | LE [kcal/mol/HA] | Structure (SMILES) | IC50 (IC50 [ μ M] (SD)) [µM]
 | 0.53 | Cc1cccc(-c2cnn[nH]2)c1 [Compound 21] | 
250 | 0.41 | Clc1cncc(-c2nc[nH]n2)n1 [Compound 162, 2-Chloro-6-(1H-1,2,4-triazol-3-yl)pyrazine] | 
> 1000 |  | COc1cccc(OC)c1-c1c[nH]nn1 [Compound 45, 4–(2,6-Dimethoxyphenyl)-1,2,3-triazole] | 
280 | 0.35 | CC(C)c1cccc(-c2c[nH]nn2)c1 [Compound 23, 4–(3-Isopropylphenyl)-1,2,3-triazole] | 
63 | 0.41 | Cc1c(Br)ccc(N)c1-c1nc[nH]n1 [Compound 155, 4-Bromo-3-methyl-2-(1H-1,2,4-triazol-3-yl)aniline] | 
430 | 0.35 | O=C(c1ccccc1)c1cnn[nH]1 [Compound 99, Phenyl(1H-1,2,3-triazol-5-yl)methanone] | 
> 1000 |  | Cc1[nH]nnc1-c1cccc(Cl)c1 [Compound 63, 4–(3-Chlorophenyl)-5-methyl-1,2,3-triazole] | 
10 | 0.57 | Nc1ccsc1-c1nc[nH]n1 [Compound 161, 2-(1H-1,2,4-Triazol-3-yl)thiophen-3-amine] | 
32 | 0.52 | Oc1ccccc1-n1cncn1 [Compound 171] | 
590 | 0.37 | c1ccc(Sc2c[nH]nn2)cc1 [Compound 83, 4-(Phenylthio)-1,2,3-triazole] | 
630 | 0.34 | N#Cc1[nH]nnc1-c1ccccc1 [Compound 62, 4-Phenyl-1H-1,2,3-triazole-5-carbonitrile] | 
> 1000 |  | NC(=O)c1[nH]nnc1-c1cc(Cl)ccc1O [Compound 67] | 
> 1000 |  | c1ccc(Oc2cnn[nH]2)cc1 [Compound 82, 4-(Phenoxy)-1,2,3-triazole] | 
 |  | Cc1cccc2sc3nncn3c12 [Compound 167, tryclazole, reference compound] | > 1000
> 1000 |  | O=C(c1ccc(Br)cc1)c1[nH]nnc1CO [Compound 123, (4-Bromophenyl)(4-(hydroxymethyl)-1H-1,2,3-triazol-5-yl)methanone] | 
160 | 0.26 | Oc1ccc(CCc2ccccc2)cc1-c1cnn[nH]1 [Compound 39, 4-Phenylethyl-2-(1H-1,2,3-triazol-5-yl)phenol] | 
> 250 |  | c1ccc(Nc2[nH]nnc2-c2ccccc2)cc1 [Compound 80] | 
> 1000 |  | O=C(c1ccc(Br)cc1)c1[nH]nnc1CBr [Compound 124, (4-(Bromomethyl)-1H-1,2,3-triazol-5-yl)(4-bromophenyl)methanone] | 
> 1000 |  | O=C(c1cnn[nH]1)c1ccccc1Cl [Compound 100, (2-Chlorophenyl)(1H-1,2,3-triazol-5-yl)methanone] | 
> 1000 |  | c1cc(-c2nc[nH]n2)ccn1 [Compound 158, 4-(1H-1,2,4-Triazol-3-yl)pyridine] | 
16 | 0.55 | Brc1cccc(-c2nc[nH]n2)c1 [Compound 135, 3–(3-Bromophenyl)-1H-1,2,4-triazole] | 
160 | 0.43 | Fc1cccc(-c2nc[nH]n2)c1 [Compound 137, 3–(3-Fluorophenyl)-1H-1,2,4-triazole] | 
> 1000 |  | CON=C(c1ccccc1)c1c[nH]nn1 [Compound 87, Phenyl(1H-1,2,3-triazol-4-yl)methanone O-methyl oxime] | 
> 1000 |  | Fc1ccc(-c2nc[nH]n2)cc1 [Compound 134, 3–(4-Fluorophenyl)-1H-1,2,4-triazole] | 
